Measured values from patent US6610716B2, “Cyanomethyl substituted thiazoliums and imidazoliums and treatments of disorders associated with protein aging” (Alteon Incorporated, priority 2000, dated 2003).
Structures can show the parent of a compound that is named as a salt.

Assays:
Phase Ia clinical trial = format: in vivo, human
Excerpt: When the heart pumps blood into the vascular system, the ability of the arteries to expand helps to push blood through the body. When arteries become stiff, as they do in the natural process of aging. the ability of the arteries to expand is diminished and also has consequences for the heart. The heart has to work harder to pump the blood into the stiff arteries, and eventually hypertrophies (enlarges in size) to accomplish this. A hypertrophied heart is an inefficient pump, and is one of the disorders that leads to congestive heart failure. […] The potential clinical benefit of this is to lessen the effort that the heart must expend to push blood throughout the body. The effect is also believed to contribute to preventing hypertrophy and subsequent inefficiency of the heart, which inefficiency would contribute to congestive heart failure.
Atherosclerosis is a disease that involves deposition of blood lipids in plaque in the arteries throughout the body. In coronary arteries, accumulation of plaque progressively leads to reduced coronary flow, with occlusion of the arteries causing focal death of cardiac tissue (myocardial infarction, heart attack). If the amount of tissue that dies is large enough, death ensures. In a Phase Ia trial, one compound believed to work by a mechanism shared by the compounds of the invention, 3-[2-phenyl-2-oxoethyl]-4,5-dimethyl-thiazolium salt, […] the amount of circulating triglycerides (lipids). […] Reducing local deposits of plaque should eventually lessen the risk of myocardial infarction and death due to heart attacks.
Pulse pressure is the difference between systolic and diastolic blood pressure. In a young human, systolic pressure is typically 120 mm Hg and diastolic pressure is 80 mm Hg, resulting in a pulse pressure of 40 mm Hg. With age, in many individuals pulse pressure increases, largely due to the increase in systolic pressure that results from stiff vessel disease. In individuals with pulse pressure greater than 60 mm Hg there is an increased risk of death from cardiovascular morbidities.

[1] = Dog model for diabetes, indicators of ventricular elasticity; format: in vivo
Excerpt: (§1) Cardiovascular risk correlates more closely with the systolic and the pulse pressure than with the diastolic pressure. In diabetic patients, the cardiovascular risk profile of diabetic patients is strongly correlated to duration of diabetes, glycemic control and blood pressure. Structural matrix proteins contribute to the function of vessels and the heart, and changes in the physical behavior of cardiovascular walls are believed to be important determinants of circulatory function. In elderly individuals, the loss of compliance in the aorta leads to isolated systolic hypertension, which in turn expands the arterial wall and thereby diminishes the dynamic range of elasticity. […] Treatment with 3-[2-phenyl-2-oxoethyl]-4,5-dimethyl-thiazolium salt lead to a reduction in the mass of collagen in cardiovascular tissues.

[2] = In vivo studies of vascular stiffening and cardiovascular collagen; set-up: species or system rodents, canines and primates
Excerpt: as §1

TGFbeta = assay: In situ hybridization studies; format: in vivo
Excerpt: as §1

Type IV collagen = assay: In situ hybridization studies; format: in vivo
Excerpt: as §1

[3] = diabetic rats; cited from earlier work
[4] = in vivo; cited from earlier work
[5] = streptozotocin-diabetic rat model; cited from earlier work
red blood cells = conditions: in vivo; cited from earlier work
[6] = use of chlorhexidine; cited from earlier work

Structure (SMILES): Cc1sc[n+](CC#N)c1C.[Br-]
- melting point: 184 to 186 °C (dec.)

Structure (SMILES): N#CC[n+]1csc2c1CCCC2.[Br-]
- melting point: 215 to 217 °C (dec.)

Structure (SMILES): Cc1sc[n+](CC(=O)c2ccccc2)c1C [3-[2-phenyl-2-oxoethyl]-4,5-dimethyl-thiazolium salt]
- stiffness of arteries, as measured by the ratio of stroke volume (ml) to pulse pressure (mm Hg) (Phase Ia clinical trial; Phase Ia clinical trial): reverse the stiffness of arteries
- amount of circulating triglycerides (lipids) (Phase Ia clinical trial; Phase Ia trial): increased
- systolic blood pressure (Phase Ia clinical trial; Phase Ia trial, believed primary cause of the pulse pressure decrease): lowering the systolic blood pressure
- pulse pressure (Phase Ia clinical trial; Phase Ia trial, elderly patients with pulse pressures greater than 60 mm Hg, statistically significant): reduced pulse pressure
- end diastolic pressure [1]: returned to a value at about the mid-point between the disease impaired value and the value for control dogs
- end diastolic volume [1]: returned to a value at about the mid-point between the disease impaired value and the value for control dogs
- mass of collagen in cardiovascular tissues ([2]; in vivo): reduction
- vascular stiffening ([2]; in vivo studies in rodents, canines and primates): substantially ameliorating vascular stiffening
- expression of TGFbeta (TGFbeta): reduces the expression
- expression of Type IV collagen (Type IV collagen): reduces the expression

Structure (SMILES): N=C(N)NN [aminoguanidine]
- aortic wall protein cross-linking [3]: diminishes
- immunoglobulin trapping in the kidney [4]: reduction
- increased glomerular basement membrane thickness [5]: prevented
- diabetes-induced changes in the deformability of red blood cells (red blood cells): prevent, treat or reverse such changes

Structure (SMILES): [H]/N=C(\N/C(=N/[H])NCCCCCCNC(=N)NC(=N)Nc1ccc(Cl)cc1)Nc1ccc(Cl)cc1 [chlorhexidine]
- dental pellicle [6]: increased dental pellicle
